# Measured values published in ChEMBL document CHEMBL1201862, “PubChem BioAssay data set” (2004).
# Active and inactive are the calls of the source.
# Tests used:
# [1] = target: G-protein coupled receptor 35 (Homo sapiens, UniProt Q9HC97); test: GPR35 antagonists blocking zaprinast-driven arrestin recruitment, primary screen, imaging, U2OS, beta-arrestin-GFP, zaprinast agonist (AID 2058); format: functional;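 also: antagonist potency meaning inhibition of agonist-induced arrestin redistribution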
# [2] = system: Streptococcus sp. 'group A'; test: growth inhibition of control SK(-) GAS strain, dose response, counter-screen for streptokinase expression inhibitor project, luminescence, kanamycin, BacTiterGlo, confirmation (AID 1900); format: functional, organism-based
# [3] = target: T1, Heat shock factor protein 1 (Mus musculus, UniProt P38532); test: inhibition of MG132-induced HSE-luciferase signal, confirmation, cell-based, NIH3T3, luminescence, dose retest (AID 2382); format: functional;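 also: NIH3T3 fibroblasts with HSF1-driven luciferase reporter stressed by proteasome inhibitor MG132; luminescence from HSF1-driven luciferase expression after 8 hours of MG132 stress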
# T1 sequence (P38532 whole entry): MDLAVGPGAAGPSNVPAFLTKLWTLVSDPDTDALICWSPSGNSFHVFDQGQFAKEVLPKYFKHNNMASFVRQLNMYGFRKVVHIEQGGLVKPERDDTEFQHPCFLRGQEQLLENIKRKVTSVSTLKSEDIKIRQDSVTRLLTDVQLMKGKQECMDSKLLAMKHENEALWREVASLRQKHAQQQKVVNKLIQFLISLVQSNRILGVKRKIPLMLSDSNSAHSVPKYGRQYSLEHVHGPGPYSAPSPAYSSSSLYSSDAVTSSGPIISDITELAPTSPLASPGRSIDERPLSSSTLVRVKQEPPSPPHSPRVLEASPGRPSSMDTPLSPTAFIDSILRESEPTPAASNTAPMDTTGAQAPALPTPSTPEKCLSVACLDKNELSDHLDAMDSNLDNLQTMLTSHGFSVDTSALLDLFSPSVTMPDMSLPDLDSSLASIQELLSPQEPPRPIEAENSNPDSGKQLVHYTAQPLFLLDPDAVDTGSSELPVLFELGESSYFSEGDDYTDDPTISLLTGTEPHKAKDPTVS
# Streptococcus = test: Group A Streptococcus viability loss, dose response, counter-screen for streptokinase expression inhibitor project, luminescence, BacTiterGlo (AID 1915); format: functional, organism-based;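 also: potency for reduction of bacterial viability or growth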
# [4] = Luminescence Cell-Based Dose Retest to Confirm Inhibitors of Cancer Stem Cells. [Related pubchem assays (depositor defined):AID2717, AID2721]; format: functional; conditions: Homo sapiens
# Cytochrome P450 3A4 = Cytochrome P450 3A4 (Homo sapiens, UniProt P08684); conditions: Potency;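 also: confirmatory qHTS run detecting inhibitors and substrates of CYP3A4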
# Cytochrome P450 2C9 = Cytochrome P450 2C9 (Homo sapiens, UniProt P11712); conditions: Potency
# Cytochrome P450 2C19 = Cytochrome P450 2C19 (Homo sapiens, UniProt P33261); test: qHTS Assay for Inhibitors and Substrates of Cytochrome P450 2C19. [Related pubchem assays: 410 ]; format: ADME; conditions: read-out: Potency
# Cytochrome P450 2D6 = Cytochrome P450 2D6 (Homo sapiens, UniProt P10635); test: qHTS Assay for Inhibitors and Substrates of Cytochrome P450 2D6. [Related pubchem assays: 410 ]; format: ADME; conditions: read-out: Potency
# Leucine aminopeptidase = target: T2, Leucine aminopeptidase (Plasmodium falciparum 3D7, UniProt Q8IL11); test: P. falciparum M17LAP inhibitors, primary screen, biochemical, fluorogenic H-Leu-NHMec substrate, 1536-well (AID 1619); format: functional
# T2 sequence (Q8IL11 whole entry): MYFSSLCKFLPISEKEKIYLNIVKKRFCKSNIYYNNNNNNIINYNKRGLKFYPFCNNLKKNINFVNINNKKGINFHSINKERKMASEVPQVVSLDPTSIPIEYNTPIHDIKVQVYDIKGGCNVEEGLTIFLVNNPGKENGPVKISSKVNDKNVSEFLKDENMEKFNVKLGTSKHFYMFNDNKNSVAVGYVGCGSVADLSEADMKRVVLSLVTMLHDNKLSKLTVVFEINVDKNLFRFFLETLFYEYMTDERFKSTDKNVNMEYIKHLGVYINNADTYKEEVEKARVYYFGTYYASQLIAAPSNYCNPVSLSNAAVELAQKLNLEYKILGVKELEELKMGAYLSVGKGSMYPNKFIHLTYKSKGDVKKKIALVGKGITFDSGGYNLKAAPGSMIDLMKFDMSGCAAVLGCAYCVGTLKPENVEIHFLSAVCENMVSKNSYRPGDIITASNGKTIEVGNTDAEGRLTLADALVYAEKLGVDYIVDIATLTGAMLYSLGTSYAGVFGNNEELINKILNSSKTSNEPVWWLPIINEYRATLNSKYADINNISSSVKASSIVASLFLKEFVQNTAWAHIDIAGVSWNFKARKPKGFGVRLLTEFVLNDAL
# [5] = inhibitors of firefly luciferase expression or activity, dose response, H4 neuroglioma cells, luminescence (AID 1990); format: functional, cell-based
# [6] = luciferase reporter signal reduction – luminescence, H4-C neuroglioblastoma cells, dose response (AID 2458); format: functional, cell-based;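 also: H4 neuroglioblastoma cells stably carrying a luciferase reporter gene fusion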
# cells = format: functional, cell-based
# [7] = Luminescence Cell-Based Dose Response HTS to Identify Inhibitors of 5'UTR Stem-Loop Driven Prion Protein mRNA Translation in H4 Neuroglioblastoma Cells. [Related pubchem assays: 1827 (Project Summary), 1813 (Primary HTS)]; format: functional
# [8] = inhibitors of SNCA 5'UTR-driven reporter translation, confirmation, H4 neuroglioma cells, luminescence (AID 1988); format: functional, cell-based
# [9] = inhibitors of SNCA 5'UTR-driven translation, confirmation, luminescence, H4 neuroglioblastoma cells, dose confirmation (AID 2454); format: functional, cell-based;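 also: H4 neuroglioblastoma cells carrying an alpha-synuclein 5'UTR luciferase reporter; potency for inhibition of the luciferase signal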
# BJ = test: cytotoxicity toward Ras-transformed BJeLR fibroblasts, dose response, cell-based, alamar blue fluorescence, cherrypicked samples (AID 2631); format: functional; conditions: Homo sapiens;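 also: confirmatory dose-response assay in RAS-dependent BJ fibroblasts engineered with TERT, LT and ST, with cytotoxicity read by fluorescence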
# [10] = Shn3 3'UTR reporter inhibitors, dose response, cell-based, Clone20 osteoblasts, firefly luciferase, cherry-picked (AID 624132); format: functional;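 also: firefly luciferase luminescence from reporter carrying the Shn3 3'UTR in osteoblasts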
# [11] = HepG2 cell cytotoxicity, dose response, cytotoxicity control for Shn3 inhibitor project, CellTiter-Glo, cherry-picked (AID 624134); format: functional, cell-based
# [12] = control 3'UTR Renilla luciferase suppression, dose response, counter-screen for Shn3 inhibitor project, cell-based, Clone20-Shn3RL, cherry-picked (AID 624133); format: functional
# [13] = A549 cell cytotoxicity, dose response, cytotoxicity control, plate reader, cherry-pick, antagonist series (AID 743412); format: functional, cell-based
# [14] = HepG2 cell cytotoxicity, dose response, cytotoxicity control, plate reader, cherry-pick, antagonist series (AID 743416); format: functional, cell-based
# [15] = LGR2 antagonists, dose response, cell-based, HEK293, CRE-luciferase reporter, cherry pick, set 2 (AID 743343); format: functional;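 also: transfected cells were stimulated with diluted bursicon conditioned medium after compound addition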
# [16] = MC4R antagonists, dose response, counter-screen for LGR2 antagonist project, cell-based, plate reader, cherry pick (AID 743444); format: functional;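 also: transfected HEK 293 cells stimulated with alpha-MSH peptide; potency of inhibitors of the alpha-MSH evoked signal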
# [17] = HEK293 cell cytotoxicity, dose response, cytotoxicity control, plate reader, cherry-picked samples (AID 743446); format: functional, cell-based
# Cytochrome P450 3A4, sequence (P08684 whole entry): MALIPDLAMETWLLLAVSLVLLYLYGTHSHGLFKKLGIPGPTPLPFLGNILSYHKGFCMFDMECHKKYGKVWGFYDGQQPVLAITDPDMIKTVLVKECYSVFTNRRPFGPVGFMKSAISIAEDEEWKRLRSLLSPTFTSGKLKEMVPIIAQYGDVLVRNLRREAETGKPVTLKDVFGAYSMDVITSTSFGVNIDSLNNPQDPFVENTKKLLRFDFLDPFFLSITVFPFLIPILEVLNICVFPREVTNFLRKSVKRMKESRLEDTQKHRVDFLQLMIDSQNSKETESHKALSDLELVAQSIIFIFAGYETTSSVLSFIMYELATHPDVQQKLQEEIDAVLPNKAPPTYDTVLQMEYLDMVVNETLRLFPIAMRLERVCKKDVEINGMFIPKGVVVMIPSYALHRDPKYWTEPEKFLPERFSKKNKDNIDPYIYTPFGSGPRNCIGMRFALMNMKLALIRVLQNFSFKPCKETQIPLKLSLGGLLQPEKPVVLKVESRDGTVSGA
# Cytochrome P450 2C9, sequence (P11712 whole entry): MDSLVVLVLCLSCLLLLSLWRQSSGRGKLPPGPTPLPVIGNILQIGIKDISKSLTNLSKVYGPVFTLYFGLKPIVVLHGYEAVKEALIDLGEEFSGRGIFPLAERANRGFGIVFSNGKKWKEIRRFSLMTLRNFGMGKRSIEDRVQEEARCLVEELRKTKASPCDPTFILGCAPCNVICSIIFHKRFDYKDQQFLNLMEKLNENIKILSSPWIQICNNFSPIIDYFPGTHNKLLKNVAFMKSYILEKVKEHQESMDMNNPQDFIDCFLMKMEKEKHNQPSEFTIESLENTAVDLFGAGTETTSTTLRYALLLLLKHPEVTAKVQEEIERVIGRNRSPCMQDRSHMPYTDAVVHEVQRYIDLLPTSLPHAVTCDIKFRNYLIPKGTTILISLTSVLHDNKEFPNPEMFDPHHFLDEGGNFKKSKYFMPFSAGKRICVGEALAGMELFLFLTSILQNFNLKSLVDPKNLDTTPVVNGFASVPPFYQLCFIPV
# G-protein coupled receptor 35, sequence (Q9HC97 whole entry): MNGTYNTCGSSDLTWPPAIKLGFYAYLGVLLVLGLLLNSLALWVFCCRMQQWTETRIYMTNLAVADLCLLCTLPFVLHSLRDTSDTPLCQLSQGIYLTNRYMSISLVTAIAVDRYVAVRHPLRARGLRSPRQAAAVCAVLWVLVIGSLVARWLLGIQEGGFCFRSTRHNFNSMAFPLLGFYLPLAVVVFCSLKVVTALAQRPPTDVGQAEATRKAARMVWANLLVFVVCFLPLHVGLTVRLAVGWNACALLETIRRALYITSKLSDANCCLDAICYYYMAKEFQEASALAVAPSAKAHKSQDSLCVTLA
# Cytochrome P450 2D6, sequence (P10635 whole entry): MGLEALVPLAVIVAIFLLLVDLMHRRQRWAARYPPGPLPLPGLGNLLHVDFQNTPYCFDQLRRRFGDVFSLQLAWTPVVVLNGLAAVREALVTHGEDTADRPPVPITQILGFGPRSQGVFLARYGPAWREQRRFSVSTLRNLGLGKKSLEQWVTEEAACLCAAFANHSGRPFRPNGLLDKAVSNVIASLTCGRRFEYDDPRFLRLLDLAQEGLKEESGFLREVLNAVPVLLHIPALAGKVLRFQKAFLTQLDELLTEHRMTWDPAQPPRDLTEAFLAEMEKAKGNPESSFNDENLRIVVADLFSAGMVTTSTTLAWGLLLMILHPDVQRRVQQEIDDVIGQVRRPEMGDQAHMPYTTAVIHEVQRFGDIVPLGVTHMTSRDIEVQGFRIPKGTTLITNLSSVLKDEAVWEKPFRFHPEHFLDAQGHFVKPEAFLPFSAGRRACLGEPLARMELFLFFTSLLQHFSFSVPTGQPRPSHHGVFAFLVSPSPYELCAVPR
# Cytochrome P450 2C19, sequence (P33261 whole entry): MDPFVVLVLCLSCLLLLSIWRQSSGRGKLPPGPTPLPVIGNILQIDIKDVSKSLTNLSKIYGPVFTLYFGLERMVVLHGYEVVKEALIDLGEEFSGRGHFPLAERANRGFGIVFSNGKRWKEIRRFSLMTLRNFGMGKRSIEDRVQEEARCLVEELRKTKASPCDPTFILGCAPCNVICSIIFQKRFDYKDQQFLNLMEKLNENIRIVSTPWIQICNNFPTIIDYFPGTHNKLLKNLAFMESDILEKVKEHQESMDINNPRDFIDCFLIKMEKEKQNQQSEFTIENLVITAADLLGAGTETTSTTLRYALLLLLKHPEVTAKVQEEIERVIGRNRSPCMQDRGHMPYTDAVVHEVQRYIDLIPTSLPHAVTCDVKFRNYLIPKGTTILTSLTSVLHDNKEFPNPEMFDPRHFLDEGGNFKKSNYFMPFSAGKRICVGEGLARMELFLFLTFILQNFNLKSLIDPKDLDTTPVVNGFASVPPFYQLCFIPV
smiles,measurement,setting,value
CC12CCC(C/C1=N\NC1=NC(=O)/C(=C\c3ccc(Cl)cc3)S1)C2(C)C (stereo not drawn),IC50,[1],13900 nM (inactive)
same,EC50,[2],1180 nM (active)
same,EC50,[3],1200 nM (active)
same,EC50,Streptococcus,2340 nM (active)
same,AC50,[4],2160 nM (active)
COC(=O)C(/C=C/C(C)Cc1cc(Br)cc(OCc2ccccc2)c1OC)OCc1ccccc1 (stereo not drawn),AC50,Cytochrome P450 3A4,3160 nM (inconclusive)
same,AC50,Cytochrome P450 2C9,3160 nM (inconclusive)
COC(=O)NC(/C(C(=O)OC)=C(\C)NCc1ccccc1)c1ccccc1 (stereo not drawn),AC50,Cytochrome P450 2C19,7.9 nM (inconclusive)
same,AC50,Cytochrome P450 2D6,3980 nM (inconclusive)
same,AC50,Cytochrome P450 3A4,3980 nM (inconclusive)
same,AC50,Cytochrome P450 2C9,3160 nM (inconclusive)
CCOc1ccc(OCc2cccc(C(=O)O)c2)cc1,IC50,Leucine aminopeptidase,24800 nM (active)
same,EC50,[5],< 100 nM (active)
same,EC50,[6],72 nM (active)
same,EC50,cells,101 nM (active)
same,EC50,[7],< 100 nM (active)
same,EC50,[3],< 160 nM (active)
same,EC50,[8],< 100 nM (active)
same,EC50,[9],38 nM (active)
same,EC50,BJ,> 133000 nM (inactive)
same,AC50,[10],649 nM (active)
same,AC50,[11],16900 nM (active)
same,AC50,[12],21400 nM (active)
same,AC50,[13],21700 nM (active)
same,AC50,[14],31000 nM (active)
same,AC50,[15],118 nM (active)
same,AC50,[16],137 nM (active)
same,AC50,[17],18900 nM (active)
